Results reported in PubChem BioAssay AID1918943 (Molecular Pharmacology Branch, DTP, NCI, 2023).

Tested on: 855422-203-R-J1-PDC complex spheroid viability
Assay: Anticancer human tumor 855422-203-R-J1-PDC patient-derived bladder carcinoma cell line growth inhibition
Settings: for IC50: curve of first compound; for viability, T/C: stronger effect = lower value
Description: Multicellular complex tumor spheroid response to LSD1 Inhibitor Iadademstat in combination with a variety of drugs and investigational agents in selected tumor cell lines
The current study was undertaken to assess response to LSD1 inhibitors in combination with standard-of-care drugs and investigational agents in solid tumor complex spheroid models as well as in the K-562 leukemia. Complex spheroids include a stromal component modeled by human endothelial cells (HUVEC) and fibroblasts modeled by human mesenchymal stem cells (MSCs). The concentration ranges selected for each drug and investigational agent were based upon clinically achievable concentrations if the clinical Cmax of the agent was known.
Compounds. The drugs and investigational agents used in this study are listed on Table 1. All of the agents used, including staurosporine (NSC755774) and gemcitabine (NSC613327), were obtained from the Developmental Therapeutics Program, NCI. FDA-approved anticancer drugs are available from the NCI at http://dtp.nci.nih.gov/branches/dscb/oncology_drugset_explanation.html. Drugs and investigational agents were >95% pure by proton nuclear magnetic resonance (NMR) and liquid chromatography/mass spectrometry (LC/MS). Stock solutions were prepared at 400x in DMSO, stored at -70 degrees C, and diluted in fresh medium prior to their use. The final concentration of DMSO in cell culture wells never exceeded 0.25% (v/v). The FDA-approved anticancer drug set is available from the Developmental Therapeutics Program at https://dtp.cancer.gov/organization/dscb/obtaining/available_plates.htm. All drugs and investigational agents were tested over a range starting from a high concentration at or near the clinical Cmax and decreasing in half-log increments. If the clinical Cmax for an agent had not been determined, the highest concentration tested was 10 microM.
Cell Lines. The patient-derived cancer cell (PDC) lines: 292921-168-R-J2-PDC, K24384-001-R-PDC, and 521955-158-R2-J5-PDC pancreatic carcinomas, 556581-035-R-J1 ovarian carcinoma, 324938-238-R-J1-PDC, 855422-203-R-J1-PDC and 883617-216-R-J1-PDC urothelial bladder carcinomas, 743489-274-T-PDC renal cell carcinoma, 138582-R-J1 Merkel cell tumor, K60290-347-R-J1 and K57222-313-R-J1-PDC glioblastomas, 653999-131-R-J2-PDC, LG0703-F948-PDC, and 349418-098-R-PDC non-small cell lung carcinomas, 885512-296-R-J2-PDC, 171881-019-R-J1-PDC breast carcinomas and 186277-243-T-J2-PDC and 233499-124-R-J2-PDC colon carcinomas were obtained from the NCI Patient-Derived Models Repository (PDMR, https://pdmr.cancer.gov). The established cell lines NCI/ADR-RES (RRID:CVCL_14520 and OVCAR-5 (RRID:CVCL_1628) ovarian carcinomas, 786-O (RRID:CVCL_1051) and A498 (RRID:CVCL_A498) renal cell carcinoma, NCI-H211 (ATCC, cat. CRL-5824; RRID:CVCL_1529), NCI-H196 (ATCC, cat. CRL-5823, RRID:CVCL_1509), SW 1271 (ATCC, cat. CRL-2177, RRID:CVCL_1716) and NCI-H1876 (ATCC, cat. CRL-5902, RRID:CVCL_1503) small cell lung carcinomas, MDA-MB-231 (RRID:CVCL_0062) and MDA-MB-468 (RRID:CVCL_0419)breast carcinomas (10-12). Pooled donor human umbilical vein endothelial cells (HUVEC, Lonza, cat. CC-2519) and human mesenchymal stem cells (hMSC, Lonza, cat. PT-2501) were purchased from Lonza (Walkersville, MD).
Cell Culture. All cells were maintained in an incubator at 37 degrees C and 5% CO2 with 95% humidity. The PDC lines were cultured according to standard operating procedures established by the NCI PDMR (https://pdmr.cancer.gov). Briefly all PDCs were thawed and cultured in Matrigel-coated flasks prepared with a working solution of 1X Ham's F-12 nutrient mix, without supplementation (Invitrogen, Waltham, MA, cat. 11765054), 100 U/mL penicillin-streptomycin (Invitrogen, cat. 15140122), and 2.5% Matrigel (Corning Inc., Corning, NY, cat. 354248) for the first three passages. […]

[1] = second compound 0.1 µM, first compound 0.00316 µM
[2] = second compound 0.1 µM, first compound 0.01 µM
[3] = second compound 0.1 µM, first compound 0.0316 µM
[4] = second compound 0.1 µM, first compound 0.1 µM
[5] = second compound 0.316 µM, first compound 0.00316 µM
[6] = second compound 0.316 µM, first compound 0.01 µM
[7] = second compound 0.316 µM, first compound 0.0316 µM
[8] = second compound 0.316 µM, first compound 0.1 µM
[9] = second compound 1 µM, first compound 0.00316 µM
[10] = second compound 1 µM, first compound 0.01 µM
[11] = second compound 1 µM, first compound 0.0316 µM
[12] = second compound 1 µM, first compound 0.1 µM
[13] = second compound 3.16 µM, first compound 0.00316 µM
[14] = second compound 3.16 µM, first compound 0.01 µM
[15] = second compound 3.16 µM, first compound 0.0316 µM
[16] = second compound 3.16 µM, first compound 0.1 µM
[17] = second compound 10 µM, first compound 0.00316 µM
[18] = second compound 10 µM, first compound 0.01 µM
[19] = second compound 10 µM, first compound 0.0316 µM
[20] = second compound 10 µM, first compound 0.1 µM
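Also: drug exposure lasted 7 days starting on day 3 after seeding.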
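For viability, T/C in this document: luminescence viability as percent of DMSO vehicle wells = 100%.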

`Cn1ncnc1C1c2n[nH]c(=O)c3cc(F)cc(c23)NC1c1ccc(F)cc1` (stereo not given) + NC1CC1c1ccc(-c2cccc(O)c2)cc1 was tested, and the IC50 (second compound 0.1 µM) was > 100 nM, the IC50 (second compound 0.316 µM) was > 100 nM and the IC50 (second compound 1 µM) was > 100 nM. For the same compound, the IC50 (second compound 3.16 µM) was > 100 nM, the IC50 (second compound 10 µM) was > 100 nM and the viability, T/C (second compound 0.1 µM, first compound 0.000316 µM) was 91.5%. For the same compound, the viability, T/C (second compound 0.1 µM, first compound 0.001 µM) was 75.1%, the viability, T/C [1] was 74.4% and the viability, T/C [2] was 77.3%. The viability, T/C [3] was 80.9%, the viability, T/C [4] was 86.2% and the viability, T/C (second compound 0.316 µM, first compound 0.000316 µM) was 89.2%. For the same compound, the viability, T/C (second compound 0.316 µM, first compound 0.001 µM) was 76.7%, the viability, T/C [5] was 76.1% and the viability, T/C [6] was 84.2%. For the same compound, the viability, T/C [7] was 87.6%, the viability, T/C [8] was 91.9% and the viability, T/C (second compound 1 µM, first compound 0.000316 µM) was 95.8%. The viability, T/C (second compound 1 µM, first compound 0.001 µM) was 97.3%, the viability, T/C [9] was 96.5% and the viability, T/C [10] was 102%. The viability, T/C [11] was 82.7%, the viability, T/C [12] was 90.5% and the viability, T/C (second compound 3.16 µM, first compound 0.000316 µM) was 102%. For the same compound, the viability, T/C (second compound 3.16 µM, first compound 0.001 µM) was 106%, the viability, T/C [13] was 103% and the viability, T/C [14] was 109%. For the same compound, the viability, T/C [15] was 94.1%, the viability, T/C [16] was 97.2% and the viability, T/C (second compound 10 µM, first compound 0.000316 µM) was 106%. It also gave a viability, T/C (second compound 10 µM, first compound 0.001 µM) of 110%, a viability, T/C [17] of 97.6% and a viability, T/C [18] of 109%. The viability, T/C [19] was 100% and the viability, T/C [20] was 102%.

`COc1cc(Nc2ncc3c(n2)-c2ccc(Cl)cc2C(c2c(F)cccc2OC)=NC3)ccc1C(=O)O` + NC1CCC(NC2CC2c2ccccc2)CC1 was tested, and the IC50 (second compound 0.1 µM) was > 1000 nM, the IC50 (second compound 0.316 µM) was > 1000 nM and the IC50 (second compound 1 µM) was > 1000 nM. For the same compound, the IC50 (second compound 3.16 µM) was 892 nM, the IC50 (second compound 10 µM) was > 1000 nM and the viability, T/C [1] was 81%. The viability, T/C [2] was 91.2%, the viability, T/C [3] was 78.8% and the viability, T/C [4] was 70.8%. It also gave a viability, T/C (second compound 0.1 µM, first compound 0.316 µM) of 64.5%, a viability, T/C (second compound 0.1 µM, first compound 1 µM) of 50.3% and a viability, T/C [5] of 88.1%. It also gave a viability, T/C [6] of 81.2%, a viability, T/C [7] of 66.4% and a viability, T/C [8] of 70.7%. For the same compound, the viability, T/C (second compound 0.316 µM, first compound 0.316 µM) was 64.2%, the viability, T/C (second compound 0.316 µM, first compound 1 µM) was 56.5% and the viability, T/C [9] was 95.7%. For the same compound, the viability, T/C [10] was 94.6%, the viability, T/C [11] was 67.8% and the viability, T/C [12] was 71.2%. It also gave a viability, T/C (second compound 1 µM, first compound 0.316 µM) of 61.5%, a viability, T/C (second compound 1 µM, first compound 1 µM) of 57% and a viability, T/C [13] of 76.3%. The viability, T/C [14] was 81.3%, the viability, T/C [15] was 70.8% and the viability, T/C [16] was 66.1%. It also gave a viability, T/C (second compound 3.16 µM, first compound 0.316 µM) of 59.4%, a viability, T/C (second compound 3.16 µM, first compound 1 µM) of 48.8% and a viability, T/C [17] of 83.2%. It also gave a viability, T/C [18] of 85.5%, a viability, T/C [19] of 64.8% and a viability, T/C [20] of 63%. The viability, T/C (second compound 10 µM, first compound 0.316 µM) was 57.7% and the viability, T/C (second compound 10 µM, first compound 1 µM) was 52.6%.

In the case of `COc1cc(C2c3cc4c(cc3C(OC3OC5COC(C)OC5C(O)C3O)C3COC(=O)C23)OCO4)cc(OC)c1O` (stereo not given) + NC1CCC(NC2CC2c2ccccc2)CC1, the IC50 (second compound 0.1 µM) is reported as 153 nM, the IC50 (second compound 0.316 µM) is reported as 142 nM and the IC50 (second compound 1 µM) is reported as 137 nM. For the same compound, the IC50 (second compound 3.16 µM) was 128 nM, the IC50 (second compound 10 µM) was 130 nM and the viability, T/C (second compound 0.1 µM, first compound 0.00949 µM) was 89.8%. It also gave a viability, T/C (second compound 0.1 µM, first compound 0.03 µM) of 87.1%, a viability, T/C (second compound 0.1 µM, first compound 0.0949 µM) of 57.6% and a viability, T/C (second compound 0.1 µM, first compound 0.3 µM) of 35.6%. For the same compound, the viability, T/C (second compound 0.1 µM, first compound 0.949 µM) was 18.5%, the viability, T/C (second compound 0.1 µM, first compound 3 µM) was 9.63% and the viability, T/C (second compound 0.316 µM, first compound 0.00949 µM) was 92%. It also gave a viability, T/C (second compound 0.316 µM, first compound 0.03 µM) of 86.4%, a viability, T/C (second compound 0.316 µM, first compound 0.0949 µM) of 55.4% and a viability, T/C (second compound 0.316 µM, first compound 0.3 µM) of 34.6%. It also gave a viability, T/C (second compound 0.316 µM, first compound 0.949 µM) of 19.5%, a viability, T/C (second compound 0.316 µM, first compound 3 µM) of 10.1% and a viability, T/C (second compound 1 µM, first compound 0.00949 µM) of 85.2%. The viability, T/C (second compound 1 µM, first compound 0.03 µM) was 81.9%, the viability, T/C (second compound 1 µM, first compound 0.0949 µM) was 56.9% and the viability, T/C (second compound 1 µM, first compound 0.3 µM) was 31.7%. It also gave a viability, T/C (second compound 1 µM, first compound 0.949 µM) of 16.4%, a viability, T/C (second compound 1 µM, first compound 3 µM) of 8.66% and a viability, T/C (second compound 3.16 µM, first compound 0.00949 µM) of 85%. The viability, T/C (second compound 3.16 µM, first compound 0.03 µM) was 84.9%, the viability, T/C (second compound 3.16 µM, first compound 0.0949 µM) was 53.6% and the viability, T/C (second compound 3.16 µM, first compound 0.3 µM) was 30.5%. The viability, T/C (second compound 3.16 µM, first compound 0.949 µM) was 17%, the viability, T/C (second compound 3.16 µM, first compound 3 µM) was 8.59% and the viability, T/C (second compound 10 µM, first compound 0.00949 µM) was 78.4%. For the same compound, the viability, T/C (second compound 10 µM, first compound 0.03 µM) was 79.7%, the viability, T/C (second compound 10 µM, first compound 0.0949 µM) was 57.7% and the viability, T/C (second compound 10 µM, first compound 0.3 µM) was 26.8%. For the same compound, the viability, T/C (second compound 10 µM, first compound 0.949 µM) was 15.8% and the viability, T/C (second compound 10 µM, first compound 3 µM) was 8.09%.
